# In patent publication US20140315886A1, “QUINAZOLINES AS THERAPEUTIC COMPOUNDS AND RELATED METHODS OF USE” (OTSUKA PHARMACEUTICAL CO., LTD., priority 2011, published 2014):
# pIC50: −log10 of the molar value.
# Target: T1, purified STEP46 enzyme (Homo sapiens, UniProt P54829)
# T1 sequence (P54829 197-565 limits assumed): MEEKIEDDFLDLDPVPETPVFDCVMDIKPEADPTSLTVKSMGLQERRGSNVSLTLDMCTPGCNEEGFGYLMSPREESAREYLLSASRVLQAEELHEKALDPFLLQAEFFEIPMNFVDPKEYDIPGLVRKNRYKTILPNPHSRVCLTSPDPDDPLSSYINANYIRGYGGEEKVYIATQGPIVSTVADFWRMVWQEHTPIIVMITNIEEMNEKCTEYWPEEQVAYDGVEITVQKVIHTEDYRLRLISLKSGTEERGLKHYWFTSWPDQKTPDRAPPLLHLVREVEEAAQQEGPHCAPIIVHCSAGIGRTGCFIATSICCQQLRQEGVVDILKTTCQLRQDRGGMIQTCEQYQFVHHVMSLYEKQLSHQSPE
# Assay: STEP46 biochemical assay (DiFMUP fluorescence phosphatase assay)
# Details: DiFMUP 10 μM, read-out: STEP IC50
# Method: Serial dilutions of compounds were performed in 100% DMSO and 1 uL of compounds were dispensed into 384-well black polystyrene plates (Corning, N.Y.). Compounds were incubated with 24 uL of buffer containing 50 mM Hepes, 1 mM DTT, 0.02% Brij35, 1 ng/well purified STEP46 enzyme for […] at room temperature. The reaction was initiated by addition of 25 uL of DiFMUP (6,8-difluoro-4-methylumbelliferyl phosphate) (InVitrogen, CA) with a final concentration of 10 μM and incubated at 27° C. for 90 mM Final DMSO concentration is 2%. Plates were read with florescence intensity at excitation/emission of 360/460 nm using a PheraStar plate reader (BMG Labtech, NC).
# Data were expressed as percentage (%) inhibition of enzyme activity. 0% inhibition is defined as the RFUs (relative fluorescence units) in the absence of compounds and 100% inhibition is defined as RFUs in the absence of STEP46 enzyme. IC50 values of compounds with inhibitory activity against STEP46 were determined by GraphPad Prism (version 4.03) using four parameter logistic equation. Some compounds act as activators. For compounds showing STEP46 enzymatic activation, data are represented as percentage of inhibition but with negative values at three representative concentrations (25, 50 and 100 uM).
row,Structure (SMILES),pIC50
1,CNc1nc(-c2cccnc2)nc2cc(-c3cc(F)cc(OCCOC)c3)ccc12 [Compound 144],5.00 to 6.00
2,COc1ccc2c(N3CCc4cc(Cl)ccc43)nc(-c3cccnc3)nc2c1 [Compound 12],5.00 to 6.00
3,CNc1nc(-c2cccnc2)nc2c(Cl)cc(-c3cccc(F)c3F)cc12 [Compound 243],5.00 to 6.00
4,Cc1c(-c2cccnc2)ccc2c(N3CCc4cc(Cl)ccc43)nc(-c3cccnc3)nc12 [Compound 114],> 6.00
5,CNc1nc(-c2cccnc2)nc2c(OC)cc(-c3ccccc3C#N)cc12 [Compound 205],5.00 to 6.00
6,Cc1ccc2c(c1)CCN2c1nc(-c2cccnc2)nc2cc(-c3cc(F)ccc3F)ccc12 [Compound 98],5.00 to 6.00
7,CNc1nc(-c2cccnc2)nc2cc(-c3ccc(F)cc3C)ccc12 [Compound 321],5.00 to 6.00
8,CNc1nc(-c2cccnc2)nc2ccc(-c3cc(C)oc3C)cc12 [Compound 285],5.00 to 6.00
9,CNc1nc(-c2cccnc2)nc2ccc(-c3ccc(F)cc3F)c(F)c12 [Compound 222],5.00 to 6.00
10,CNc1nc(-c2cccnc2)nc2c(C)c(-c3ccc(C)cc3)ccc12 [Compound 296],< 5.00
11,CCOc1ccc2nc(-c3cccnc3)nc(Nc3cncc(C)c3)c2c1 [Compound 65],5.00 to 6.00
12,CNc1nc(-c2cccnc2)nc2c(C)c(-c3cc(F)cc(F)c3F)ccc12 [Compound 288],5.00 to 6.00
13,CNc1nc(-c2cccnc2)nc2ccc(-c3cccc(F)c3F)c(F)c12 [Compound 221],5.00 to 6.00
14,Fc1ccc(-c2ccc3nc(-c4ccnnc4)nc(NCc4ccccn4)c3c2)c(F)c1 [Compound 329],5.00 to 6.00
15,CNc1nc(-c2cccnc2)nc2c(OC)cc(-c3cccc(F)c3F)cc12 [Compound 194],5.00 to 6.00
16,COc1ccc2nc(-c3cccnc3)nc(Nc3cncc(F)c3)c2c1 [Compound 25],5.00 to 6.00
17,CNc1nc(-c2cccnc2)nc2c(OC)cc(-c3ccc(F)cc3F)cc12 [Compound 195],> 6.00
18,CNc1nc(-c2cccnc2)nc2ccc(-c3cccc(S(N)(=O)=O)c3)cc12 [Compound 235],< 5.00

row,Structure (SMILES),pIC50
1,Cc1ccc2c(c1)CCN2c1nc(-c2cccnc2)nc2ccc(-c3cccc(F)c3F)cc12 [Compound 74],5.00 to 6.00
2,CNc1nc(-c2cccnc2)nc2cc(C(F)(F)F)c(-c3ccc(F)cc3F)cc12 [Compound 198],< 5.00
3,CCOc1cc(F)cc(-c2ccc3c(NC)nc(-c4cccnc4)nc3c2)c1 [Compound 145],5.00 to 6.00
4,COc1cc(F)ccc1-c1ccc2c(N3CCc4cc(Cl)ccc43)nc(-c3cccnc3)nc2c1 [Compound 110],> 6.00
5,Fc1cc(F)cc(-c2ccc3nc(-c4ccnnc4)nc(NCc4ccccn4)c3c2)c1 [Compound 328],5.00 to 6.00
6,CNc1nc(-c2cccnc2OC)nc2cc(-c3cc(F)ccc3F)ccc12 [Compound 158],5.00 to 6.00
7,CCc1nc2ccc(Nc3nc(-c4cccnc4)nc4ccc(OC)cc34)cc2o1 [Compound 40],< 5.00
8,CNc1nc(-c2cccnc2)nc2cc(-c3cc(F)cc(OC)c3)ccc12 [Compound 279],> 6.00
9,CNc1nc(-c2cncc(F)c2)nc2cc(-c3cc(F)ccc3F)ccc12 [Compound 157],5.00 to 6.00
10,Cc1cncc(Nc2nc(-c3cccnc3)nc3ccc(Cl)cc23)c1 [Compound 66],5.00 to 6.00
11,Fc1ccc(Nc2nc(-c3cccnc3)nc3cc(Cl)ccc23)nc1 [Compound 52],5.00 to 6.00
12,CNc1nc(-c2cccnc2)nc2cc(-c3cc(C)oc3C)ccc12 [Compound 276],< 5.00
13,Cc1ccc2c(c1)N(c1nc(-c3cccnc3)nc3ccc(Br)cc13)CC2 [Compound 20],5.00 to 6.00
14,Fc1cccc(-c2ccc3nc(-c4ccnnc4)nc(NCc4ccccn4)c3c2)c1F [Compound 333],< 5.00
15,CNc1nc(-c2cccnc2)nc2cc(-c3cc(F)nc(F)c3)ccc12 [Compound 284],> 6.00
16,CCOc1ccc(F)c(-c2ccc3nc(-c4cccnc4)nc(NC)c3c2)c1 [Compound 201],5.00 to 6.00
17,Nc1nc(-c2cncnc2)nc2ccc(-c3cccc(F)c3)cc12 [Compound 213],< 5.00

# More lines, now with the values ahead:
row,pIC50,Structure (SMILES)
1,5.00 to 6.00,CNc1nc(-c2cccnc2)nc2c(F)c(-c3ccc(F)c(F)c3F)ccc12 [Compound 521]
2,5.00 to 6.00,c1ccc(CNc2nc(-c3cccnc3)nc3ccc(-c4ccoc4)cc23)nc1 [Compound 602]
3,5.00 to 6.00,CNc1nc(-c2cccnc2)nc2c(F)c(-c3cccc(F)c3)ccc12 [Compound 510]
4,5.00 to 6.00,CC(Nc1nc(-c2cccnc2)nc2ccc(-c3ccccc3F)cc12)c1ccccc1 (stereo not drawn) [Compound 603]
5,5.00 to 6.00,CC(Nc1nc(-c2cccnc2)nc2cc(-c3cc(F)cc(F)c3)ccc12)c1ccccn1 (stereo not drawn) [Compound 370]
6,5.00 to 6.00,Fc1ccc(-c2ccc3nc(-c4cccnc4)nc(Nc4cccc(F)n4)c3c2)cc1 [Compound 439]
7,5.00 to 6.00,CNc1nc(-c2cccnc2)nc2cc(-c3ccc(F)c(F)c3)c(F)cc12 [Compound 558]
8,5.00 to 6.00,NC(=O)C1CN(c2nc(-c3cccnc3)nc3ccc(-c4ccc(F)cc4F)cc23)C1 [Compound 419]
9,< 5.00,Fc1ccc(-c2ccc3nc(-c4cccnc4)nc(NCCc4ccccn4)c3c2)cc1 [Compound 337]
10,5.00 to 6.00,CNc1nc(-c2cccnc2)nc2ccc(-c3c(F)cccc3F)cc12 [Compound 458]
11,> 6.00,CNc1nc(-c2cccnc2)nc2ccc(-c3cccc(C(=O)Nc4nncs4)c3)cc12 [Compound 447]
12,5.00 to 6.00,CNc1nc(-c2cccnc2)nc2c(F)c(-c3ccc(F)c(C)c3)ccc12 [Compound 541]
13,5.00 to 6.00,CNc1nc(-c2cccnc2)nc2cc(F)c(-c3cccc(C#N)c3)cc12 [Compound 589]
14,5.00 to 6.00,Fc1ccc(-c2ccc3c(NCCc4ccccn4)nc(-c4cccnc4)nc3c2)cc1 [Compound 340]
15,5.00 to 6.00,CNc1nc(-c2cccnc2)nc2c(-c3cc(F)cc(F)c3)ccc(OC)c12 [Compound 491]
16,5.00 to 6.00,CNc1nc(-c2cccnc2)nc2cc(-c3cc(F)ccc3F)c(F)cc12 [Compound 554]
17,5.00 to 6.00,CNc1nc(-c2cccnc2)nc2cc(-c3ccc(F)cc3)c(F)cc12 [Compound 553]
18,5.00 to 6.00,CNc1nc(-c2cccnc2)nc2cc(F)c(-c3cccc(OC)c3)cc12 [Compound 590]
19,5.00 to 6.00,CNc1nc(-c2cccnc2)nc2c(F)c(-c3ccc(OC)cc3)ccc12 [Compound 518]
20,< 5.00,CNc1nc(-c2cccnc2)nc2ccc(-c3cc(F)cc(F)c3)c(OC)c12 [Compound 488]
21,5.00 to 6.00,Fc1ccc(-c2ccc3nc(-c4cccnc4)nc(NCc4ccccn4)c3c2)cc1 [Compound 374]
22,5.00 to 6.00,CNc1nc(-c2cccnc2)nc2cc(-c3cccc(F)c3)c(F)cc12 [Compound 550]
23,5.00 to 6.00,CNc1nc(-c2cccnc2)nc2cc(F)c(-c3cccc(F)c3)cc12 [Compound 584]
24,5.00 to 6.00,CC(Nc1nc(-c2cccnc2)nc2ccc(-c3cccc(F)c3F)cc12)c1ccccc1 (stereo not drawn) [Compound 606]
25,5.00 to 6.00,CNc1nc(-c2cnccn2)nc2cc(-c3ccccc3F)ccc12 [Compound 391]
26,5.00 to 6.00,CNc1nc(-c2cccnc2)nc2ccc(-c3nnc(-c4ccccc4)s3)cc12 [Compound 466]
27,5.00 to 6.00,CNc1nc(-c2cccnc2)nc2c(F)c(-c3ccc4sccc4c3)ccc12 [Compound 529]
28,> 6.00,CNc1nc(-c2cccnc2)nc2ccc(-c3cccc4[nH]c(=O)oc34)cc12 [Compound 475]
